# Source: patent US20230399342A1 (Incyte Corporation, priority 2022, published 2023)
# Key:
# [1] = target: DGKα (Homo sapiens (Human), UniProt P23743); assay: In vitro DGKα inhibition assay (ADP-Glo); type: biochemical; settings: His-tagged human recombinant enzyme, 0.1 nM DGKα, 50 μM ATP, 20 μM DLG, 90 minute incubation
# Method: (§1) The DGKα and DGKξ biochemical reactions were performed using His-tagged human recombinant enzymes (Signal Chem, DGKα, #D21-1OBH; DGKξ, #D30-10H)) and DLG (Dilauroyl-sn-glycerol) lipid substrate (Signal Chem, #D430-59). ADP-Glo assay was performed using ADP-Glog™ kinase Assay kit (Promega, #V9104). The reactions were carried out in assay buffer containing 40 mM Tris, pH 7.5, 0.1% CHAPS, 0.1% Prionex, 40 mM NaCl, 5 mM MgCl2, 1 mM CaCl2, and 1 mM DTT. DGKα reactions contained 0.1 nM DGKα, 50 μM ATP, and 20 μM DLG. And DGKC reactions contained 0.4 nM DGK, 30 μM ATP, and 20 μM DLG.
# (§2) For compound inhibition studies, 40 nL test compound in DMSO was added to wells of white polystyrene plates in 384-well (Greiner, #784075) or 1536-well format (Greiner, #782075). Compounds were added with top concentration of 2 mM with 11 point, 3-fold dilution series. Enzyme solution (contains 2×DGK enzyme concentration in Ix assay buffer) was added to the plate in 2 μL/well volume, followed by 2 μL/well of substrate solution (contains 2×concentration of ATP and DLG substrate in Ix assay buffer). Plates were then centrifuged for 1 min at 1200 RPM and sealed or lidded. For 4 μL reaction volume, test compounds were therefore diluted 100× to final top concentration of 20 μM. After 90 minute incubation, reactions were quenched by addition of 2 μL/well Promega ADP-Glo Reagent, followed by centrifugation and lidding. After 60 min incubation, 2 μL/well Promega Kinase Detection Reagent was added, plates centrifuged, and incubated for 30 min. Plates were then read using Luminescence method on BMG PHERAstar FSX plate reader. Percent inhibition was calculated and IC50s were determined using 4-parameter fit in Genedata Screener. Labcyte Echo acoustic dispenser was used for compound addition, and Formulatrix Tempest liquid handler was used for all reagent dispenses.
# [2] = target: DGKζ (Homo sapiens (Human), UniProt Q13574); assay: In vitro DGKζ inhibition assay (ADP-Glo); type: biochemical; settings: His-tagged human recombinant enzyme, 0.4 nM DGK, 30 μM ATP, 20 μM DLG, 90 minute incubation
# Chain of DGKζ (Q13574 whole entry): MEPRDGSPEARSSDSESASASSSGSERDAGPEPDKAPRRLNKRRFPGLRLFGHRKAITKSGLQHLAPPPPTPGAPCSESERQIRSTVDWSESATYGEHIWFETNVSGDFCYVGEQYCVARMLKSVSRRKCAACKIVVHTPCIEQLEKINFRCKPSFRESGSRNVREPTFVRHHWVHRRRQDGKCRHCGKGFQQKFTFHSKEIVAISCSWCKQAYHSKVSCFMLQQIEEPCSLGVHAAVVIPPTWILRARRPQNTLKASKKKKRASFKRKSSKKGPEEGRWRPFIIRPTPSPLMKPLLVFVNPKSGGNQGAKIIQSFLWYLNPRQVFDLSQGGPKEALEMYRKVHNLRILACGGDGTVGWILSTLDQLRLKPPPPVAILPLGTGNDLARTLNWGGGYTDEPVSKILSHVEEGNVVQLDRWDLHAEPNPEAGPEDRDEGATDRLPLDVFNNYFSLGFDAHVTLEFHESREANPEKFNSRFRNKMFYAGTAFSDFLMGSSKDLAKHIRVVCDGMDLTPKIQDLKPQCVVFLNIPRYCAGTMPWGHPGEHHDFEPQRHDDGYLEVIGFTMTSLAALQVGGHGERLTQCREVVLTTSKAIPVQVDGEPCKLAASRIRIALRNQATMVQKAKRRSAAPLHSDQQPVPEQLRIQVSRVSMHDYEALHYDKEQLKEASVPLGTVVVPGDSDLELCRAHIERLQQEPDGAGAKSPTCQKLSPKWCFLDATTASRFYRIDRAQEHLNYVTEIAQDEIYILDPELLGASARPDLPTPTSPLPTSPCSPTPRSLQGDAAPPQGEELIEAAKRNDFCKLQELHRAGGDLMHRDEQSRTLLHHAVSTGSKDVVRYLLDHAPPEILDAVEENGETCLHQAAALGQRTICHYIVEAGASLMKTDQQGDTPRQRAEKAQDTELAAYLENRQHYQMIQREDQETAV
# Method: as §1, §2
# Chain of DGKα (P23743 whole entry): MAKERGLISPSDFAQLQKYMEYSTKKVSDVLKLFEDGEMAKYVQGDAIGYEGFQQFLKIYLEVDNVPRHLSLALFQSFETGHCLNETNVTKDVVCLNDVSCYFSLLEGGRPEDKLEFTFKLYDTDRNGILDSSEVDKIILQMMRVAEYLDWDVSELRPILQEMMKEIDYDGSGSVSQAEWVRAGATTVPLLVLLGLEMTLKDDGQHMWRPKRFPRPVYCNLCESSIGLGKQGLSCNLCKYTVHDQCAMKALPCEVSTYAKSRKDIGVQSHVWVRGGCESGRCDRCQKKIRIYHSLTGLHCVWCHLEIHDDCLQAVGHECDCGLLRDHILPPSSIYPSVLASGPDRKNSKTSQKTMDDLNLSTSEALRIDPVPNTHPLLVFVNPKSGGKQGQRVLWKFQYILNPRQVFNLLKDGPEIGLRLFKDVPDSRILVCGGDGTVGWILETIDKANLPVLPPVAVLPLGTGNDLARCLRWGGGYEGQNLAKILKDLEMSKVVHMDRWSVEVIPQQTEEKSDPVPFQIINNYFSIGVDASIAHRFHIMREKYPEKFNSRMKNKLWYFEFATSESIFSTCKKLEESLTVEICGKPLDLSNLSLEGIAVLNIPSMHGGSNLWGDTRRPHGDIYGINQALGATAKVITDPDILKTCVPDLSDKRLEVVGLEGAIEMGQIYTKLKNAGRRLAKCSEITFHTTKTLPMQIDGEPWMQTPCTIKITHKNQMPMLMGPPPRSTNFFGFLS
IC50 [1],IC50 [2],SMILES
≤ 20 nM,≤ 20 nM,"CC[C@@H]1CN(c2nc3nncn3c3c2nc(C)n3C[C@@H]2CCCO2)[C@@H](C)CN1[C@@H](c1ccc(C(F)(F)F)cc1)C(C)C [Example 129, 4-((2S,5R)-5-Ethyl-2-methyl-4-((R)-2-methyl-1-(4-(trifluoromethyl)phenyl)propyl)piperazin-1-yl)-2-methyl-1-(((S)-tetrahydrofuran-2-yl)methyl)-1H-[1,2,4]triazolo[3,4-b]purine]"
≤ 20 nM,≤ 20 nM,"Cc1nc2c(N3C[C@@H](CO)N(C(c4ccc(C(F)(F)F)cc4)C4CC(F)(F)C4)C[C@@H]3C)nc3nncn3c2n1C[C@@H]1CCCO1 (stereo partly drawn) [Example 122, ((2S,5S)-1-((3,3-Difluorocyclobutyl)(4-(trifluoromethyl)phenyl)methyl)-5-methyl-4-(2-methyl-1-(((S)-tetrahydrofuran-2-yl)methyl)-1H-[1,2,4]triazolo[3,4-b]purin-4-yl)piperazin-2-yl)methanol]"
≤ 20 nM,≤ 20 nM,"C[C@@H]1CN(c2nc3nncn3c3c2ncn3CCN(C)C)[C@@H](C)CN1C(c1ccc(C(F)F)cc1)c1ccc(C(F)F)cc1 [Example 100, 2-(4-((2S,5R)-4-(Bis(4-(difluoromethyl)phenyl)methyl)-2,5-dimethylpiperazin-1-yl)-1H-[1,2,4]triazolo[3,4-b]purin-1-yl)-N,N-dimethylethan-1-amine]"
≤ 20 nM,≤ 20 nM,"CC[C@@H]1CN(c2nc3nncn3c3c2nc(C)n3C[C@@H]2CCCO2)[C@@H](C)CN1C(CO)(c1ccc(F)cc1)c1ccc(F)cc1 [Example 125, 2-((2R,5S)-2-Ethyl-5-methyl-4-(2-methyl-1-(((S)-tetrahydrofuran-2-yl)methyl)-1H-[1,2,4]triazolo[3,4-b]purin-4-yl)piperazin-1-yl)-2,2-bis(4-fluorophenyl)ethan-1-01]"
≤ 20 nM,≤ 20 nM,"Cc1nc2c(N3C[C@@H](C)N([C@@H](c4ccc(C(F)(F)F)cc4F)C(C)C)C[C@@H]3C)nc3nncn3c2n1C[C@@H]1CCCO1 [Example 72, 4-((2S,5R)-4-((R)-1-(2-fluoro-4-(trifluoromethyl)phenyl)-2-methylpropyl)-2,5-dimethylpiperazin-1-yl)-2-methyl-1-(((S)-tetrahydrofuran-2-yl)methyl)-1H-[1,2,4]triazolo[3,4-b]purine]"
≤ 20 nM,20 to 200 nM,"COC[C@@H]1CN(c2nc3nncn3c3scnc23)[C@@H](C)CN1C(c1ccc(F)cc1)c1ccc(F)cc1 [Example 13, 4-((2S,5S)-4-(Bis(4-fluorophenyl)methyl)-5-(methoxymethyl)-2-methylpiperazin-1-yl)thiazolo[4,5-e][1,2,4]triazolo[4,3-a]pyrimidine]"
≤ 20 nM,20 to 200 nM,"Cc1nc2c(N3C[C@@H](C)N([C@@H](c4ccc(OC(F)F)cc4)C(C)C)C[C@@H]3C)nc3nncn3c2n1C[C@@H]1CCCO1 [Example 80, 4-((2S,5R)-4-((R)-1-(4-(difluoromethoxy)phenyl)-2-methylpropyl)-2,5-dimethylpiperazin-1-yl)-2-methyl-1-(((S)-tetrahydrofuran-2-yl)methyl)-1H-[1,2,4]triazolo[3,4-b]purine]"
≤ 20 nM,≤ 20 nM,"Cc1nc2c(N3C[C@@H](C)N(C(c4cc(F)c(C(F)(F)F)cc4F)C4CC(F)(F)C4)C[C@@H]3C)nc3nncn3c2n1C[C@@H]1CCCO1 (stereo partly drawn) [Example 56, 4-((2S,5R)-4-((2,5-Difluoro-4-(trifluoromethyl)phenyl)(3,3-difluorocyclobutyl)methyl)-2,5-dimethylpiperazin-1-yl)-2-methyl-1-(((S)-tetrahydrofuran-2-yl)methyl)-1H-[1,2,4]triazolo[3,4-b]purine]"
≤ 20 nM,≤ 20 nM,"CC[C@@H]1CN(c2nc3nncn3c3c2nnn3C[C@@H]2CCCO2)[C@@H](C)CN1C(c1ccc(Cl)cc1)C1CC(F)(F)C1 (stereo partly drawn) [Example 121, 4-((2S,5R)-4-((4-Chlorophenyl)(3,3-difluorocyclobutyl)methyl)-5-ethyl-2-methylpiperazin-1-yl)-1-(((S)-tetrahydrofuran-2-yl)methyl)-1H-[1,2,3]triazolo[4,5-e][1,2,4]triazolo[4,3-a]pyrimidine]"
≤ 20 nM,≤ 20 nM,"Cc1nc2c(N3C[C@@H](C)N(C(c4ccc(F)cc4)c4ccc(F)cc4)C[C@@H]3C)nc3nncn3c2n1C[C@@H]1CCCO1 [Example 19, 4-((2S,5R)-4-(Bis(4-fluorophenyl)methyl)-2,5-dimethylpiperazin-1-yl)-2-methyl-1-(((S)-tetrahydrofuran-2-yl)methyl)-1H-[1,2,4]triazolo[3,4-b]purine]"
≤ 20 nM,≤ 20 nM,"C[C@@H]1CN(c2nc3nncn3c3c2ncn3CCN(C)C)[C@@H](C)CN1C(c1ccc(C(F)(F)F)cn1)c1ccc(C(F)(F)F)cn1 [Example 112, 2-(4-((2S,5R)-4-(Bis(5-(trifluoromethyl)pyridin-2-yl)methyl)-2,5-dimethylpiperazin-1-yl)-1H-[1,2,4]triazolo[3,4-b]purin-1-yl)-N,N-dimethylethan-1-amine]"
≤ 20 nM,≤ 20 nM,"C[C@@H]1CN(c2nc3nncn3c3c2nnn3C[C@H]2CCCO2)[C@@H](C)CN1C(c1ccc(F)cc1)c1ccc(F)cc1 [Example 29, 4-((2S,5R)-4-(Bis(4-fluorophenyl)methyl)-2,5-dimethylpiperazin-1-yl)-1-(((R)-tetrahydrofuran-2-yl)methyl)-1H-[1,2,3]triazolo[4,5-e][1,2,4]triazolo[4,3-a]pyrimidine]"
≤ 20 nM,≤ 20 nM,"C[C@@H]1CN(c2nc3nncn3c3c2ncn3CCN(C)C)[C@@H](C)CN1C(c1ccc(Cl)cc1)c1ccc(Cl)cc1 [Example 107, 2-(4-((2S,5R)-4-(Bis(4-chlorophenyl)methyl)-2,5-dimethylpiperazin-1-yl)-1H-[1,2,4]triazolo[3,4-b]purin-1-yl)-N,N-dimethylethan-1-amine]"
≤ 20 nM,≤ 20 nM,"Cc1nc2c(N3C[C@@H](C)N(C(c4ccc(C(F)(F)F)cc4)C4CC(F)(F)C4)C[C@@H]3C)nc3nncn3c2n1C[C@@H]1CCCO1 (single isomer, unassigned) [Example 43]"
≤ 20 nM,≤ 20 nM,"CC[C@@H]1CN(c2nc3nncn3c3c2nc(C)n3C[C@@H]2CCCO2)[C@@H](C)CN1C(c1ccc(Cl)cc1)c1ccc(Cl)cc1 [Example 41, 4-((2S,5R)-4-(Bis(4-chlorophenyl)methyl)-5-ethyl-2-methylpiperazin-1-yl)-2-methyl-1-(((S)-tetrahydrofuran-2-yl)methyl)-1H-[1,2,4]triazolo[3,4-b]purine]"
≤ 20 nM,≤ 20 nM,"Cc1nc2c(N3C[C@@H]([C@@H](C)O)N(C(c4ccc(F)cc4)c4ccc(F)cc4)C[C@@H]3C)nc3nncn3c2n1C[C@@H]1CCCO1 [Example 123, (R)-1-((2S,5S)-1-(Bis(4-fluorophenyl)methyl)-5-methyl-4-(2-methyl-1-(((S)-tetrahydrofuran-2-yl)methyl)-1H-[1,2,4]triazolo[3,4-b]purin-4-yl)piperazin-2-yl)ethan-1-ol]"
≤ 20 nM,≤ 20 nM,"Cc1nc2c(N3C[C@@H](C)N(C(c4ccc(F)c(C(F)(F)F)c4)C(C)C)C[C@@H]3C)nc3nncn3c2n1C[C@@H]1CCCO1 (stereo partly drawn) [Example 84, 4-((2S,5R)-4-(1-(4-Fluoro-3-(trifluoromethyl)phenyl)-2-methylpropyl)-2,5-dimethylpiperazin-1-yl)-2-methyl-1-(((S)-tetrahydrofuran-2-yl)methyl)-1H-[1,2,4]triazolo[3,4-b]purine]"
≤ 20 nM,≤ 20 nM,"Cc1nc2c(N3C[C@@H](C)N([C@H](c4ccc(C(F)(F)F)cc4)C(C)C)C[C@@H]3C)nc3nncn3c2n1C[C@@H]1CCCO1 [Example 67, 4-((2S,5R)-2,5-Dimethyl-4-((S)-2-methyl-1-(4-(trifluoromethyl)phenyl)propyl)piperazin-1-yl)-2-methyl-1-(((S)-tetrahydrofuran-2-yl)methyl)-1H-[1,2,4]triazolo[3,4-b]purine]"
≤ 20 nM,≤ 20 nM,"CC[C@@H]1CN(c2nc3nncn3c3c2nnn3C[C@@H]2CCCO2)[C@@H](C)CN1C(c1ccc(F)cc1)c1ccc(F)cc1 [Example 30, 4-((2S,5R)-4-(Bis(4-fluorophenyl)methyl)-5-ethyl-2-methylpiperazin-1-yl)-1-(((S)-tetrahydrofuran-2-yl)methyl)-1H-[1,2,3]triazolo[4,5-e][1,2,4]triazolo[4,3-a]pyrimidine]"
≤ 20 nM,> 2000 nM,"CCn1ccc2c1c(N1C[C@@H](C)N(C(c3ccc(F)cc3)c3ccc(F)cc3)C[C@@H]1C)nc1nncn12 [Example 10, 5-((2S,5R)-4-(Bis(4-fluorophenyl)methyl)-2,5-dimethylpiperazin-1-yl)-6-ethyl-6H-pyrrolo[2,3-e][1,2,4]triazolo[4,3-a]pyrimidine]"
